Target: DYRK1B (Homo sapiens (Human), UniProt Q9Y463)
Assay: DYRK1B Kinase Assay (33P ATP, DYRKtide substrate, Reaction Biology Corp.)
Type: biochemical
Conditions: 0.3 nM DYRK1B, 20 μM DYRKtide, 10 μM ATP, 25° C., 120 min
Method: The assay was carried out by Reaction Biology Corp., […], Pa., USA according to specifications by Reaction Biology Corp., as detailed herein below and further described in Anastassiadis et al., Nature Biotechnology, 29 (2011) 1039-1045. The substrate DYRKtide (synthetic peptide RRRFRPASPLRGPPK) was dissolved in freshly prepared Base Reaction Buffer (20 mM Hepes (pH 7.5), 10 mM MgCl2, 1 mM EGTA, 0.02% Brij35, 0.02 mg/ml BSA, 0.1 mM Na3VO4, 2 mM DTT, 1% DMSO) at a concentration of 20 μM. DYRK1B was added to the substrate solution in a concentration of 0.3 nM and gently mixed. Dilution series of the compounds according to the present invention in DMSO were prepared. Each dilution was added to a batch of the above reaction mix, followed 20 min later by addition of a mixture of ATP and ^33P ATP (specific activity 0.01 μCi/μl final) to a final concentration of 10 μM. Reactions were carried out at 25° C. for 120 min, followed by spotting the reactions onto P81 ion exchange filter paper. Unbound phosphate was removed by extensive washing of the filters in 0.75% phosphoric acid. […] IC50 values and curve fits were obtained using Prism (Graph Pad Software). DYRK1B used in the above assays are further described in the below table: [table] Exemplary compound dilution series, final concentrations of compound in the assay vessel; the individual concentrations and the range of concentrations covered by the dilution series may differ for each compound, as long as enough data points are obtained to determine the compound's IC50: DYRK 1[…].

Sequence of DYRK1B (Q9Y463 whole entry): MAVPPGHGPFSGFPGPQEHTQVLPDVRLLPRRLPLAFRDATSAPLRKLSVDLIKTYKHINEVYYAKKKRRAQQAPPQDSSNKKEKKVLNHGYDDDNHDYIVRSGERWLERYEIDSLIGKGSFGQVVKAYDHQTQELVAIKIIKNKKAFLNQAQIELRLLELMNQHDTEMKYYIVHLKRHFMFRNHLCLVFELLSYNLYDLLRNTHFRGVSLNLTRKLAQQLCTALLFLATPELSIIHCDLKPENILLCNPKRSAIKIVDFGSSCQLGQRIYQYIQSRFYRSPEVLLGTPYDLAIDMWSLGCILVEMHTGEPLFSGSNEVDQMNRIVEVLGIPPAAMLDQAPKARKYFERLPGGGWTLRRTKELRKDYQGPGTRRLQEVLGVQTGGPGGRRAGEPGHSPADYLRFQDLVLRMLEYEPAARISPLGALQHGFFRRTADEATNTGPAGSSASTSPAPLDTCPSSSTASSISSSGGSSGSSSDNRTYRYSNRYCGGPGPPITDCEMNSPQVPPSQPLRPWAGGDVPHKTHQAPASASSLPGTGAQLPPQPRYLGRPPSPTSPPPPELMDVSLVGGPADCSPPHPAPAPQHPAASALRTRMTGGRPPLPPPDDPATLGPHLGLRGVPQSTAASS

| Molecule | IC50 |
| --- | --- |
| O=C(Nc1nc[nH]n1)c1csc(-c2ccc3c(c2)CCO3)n1 [Compound 63, 2-(2,3-Dihydro-1-benzofuran-5-yl)-N-(1H-1,2,4-triazol-3-yl)-1,3-thiazole-4-carboxamide] | 47.1 nM |
| O=C(Nc1nnc(N2CCOCC2)s1)c1csc(-c2ccc3c(c2)CCO3)n1 [Compound 56, 2-(2,3-Dihydro-1-benzofuran-5-yl)-N-[5-(morpholin-4-yl)-1,3,4-thiadiazol-2-yl]-1,3-thiazole-4-carboxamide] | 21.7 nM |
| O=C(Nc1nc2cc(C(=O)c3ccc[nH]3)ccc2[nH]1)c1csc(-c2ccc3c(c2)CCO3)n1 [Compound 49, 2-(2,3-Dihydro-1-benzofuran-5-yl)-N-[5-(H-pyrrole-2-carbonyl)-1H-1,3-benzodiazol-2-yl]-1,3-thiazole-4-carboxamide] | 6.63 nM |
| O=C(Nc1nc2ccc(C(=O)N3CCOCC3)cc2s1)c1csc(-c2ccc3c(c2)CCO3)n1 [Compound 51, 2-(2,3-Dihydro-1-benzofuran-5-yl)-N-[6-(morpholine-4-carbonyl)-1,3-benzothiazol-2-yl]-1,3-thiazole-4-carboxamide] | 9.17 nM |
| CCOC(=O)c1csc(NC(=O)c2csc(-c3ccc4c(c3)CCO4)n2)n1 [Compound 78, Ethyl 2-[2-(2,3-dihydro-1-benzofuran-5-yl)-1,3-thiazole-4-amido]-1,3-thiazole-4-carboxylate] | 410 nM |
| Cc1nc(NC(=O)c2csc(-c3ccc4c(c3)CCO4)n2)sc1C [Compound 74, 2-(2,3-Dihydro-1-benzofuran-5-yl)-N-(dimethyl-1,3-thiazol-2-yl)-1,3-thiazole-4-carboxamide] | 125 nM |
| COc1nc(NC(=O)c2csc(-c3ccc4c(c3)CCO4)n2)ns1 [Compound 64, 2-(2,3-Dihydro-1-benzofuran-5-yl)-N-(5-methoxy-1,2,4-thiadiazol-3-yl)-1,3-thiazole-4-carboxamide] | 48.3 nM |
| Ethyl 5-(2-(2,3-dihydrobenzofuran-5-yl)thiazole-4-carboxamido)-4H-1,2,4-triazole-3-carboxylate [Compound 20] | 109 nM |
| CSc1nnc(NC(=O)c2csc(-c3ccc4c(c3)CCO4)n2)[nH]1 [Compound 21, 2-(2,3-Dihydrobenzofuran-5-yl)-N-(5-(methylthio)-4H-1,2,4-triazol-3-yl)thiazole-4-carboxamide] | 18.3 nM |
| CS(=O)(=O)c1n[nH]c(NC(=O)c2csc(-c3ccc4c(c3)CCO4)n2)n1 [Compound 43, 2-(2,3-Dihydrobenzofuran-5-yl)-N-(3-(methylsulfonyl)-1H-1,2,4-triazol-5-yl)thiazole-4-carboxamide] | 535 nM |
| CCOC(=O)C1CCN(c2nnc(NC(=O)c3csc(-c4ccc5c(c4)CCO5)n3)s2)CC1 [Compound 53, Ethyl 1-{5-[2-(2,3-dihydro-1-benzofuran-5-yl)-1,3-thiazole-4-amido]-1,3,4-thiadiazol-2-yl}piperidine-4-carboxylate] | 14.4 nM |
| Cc1cc(NC(=O)c2csc(-c3ccc4c(c3)CCO4)n2)n[nH]1 [Compound 66, 2-(2,3-Dihydro-1-benzofuran-5-yl)-N-(5-methyl-1H-pyrazol-3-yl)-1,3-thiazole-4-carboxamide] | 50.5 nM |
| O=C(Nc1nnc(C(=O)O)[nH]1)c1csc(-c2ccc3c(c2)CCO3)n1 [Compound 31, 5-(2-(2,3-Dihydrobenzofuran-5-yl)thiazole-4-carboxamido)-4H-1,2,4-triazole-3-carboxylic acid] | 68.1 nM |
| O=C(Nc1nnc(-c2ccncc2)s1)c1csc(-c2ccc3c(c2)CCO3)n1 [Compound 59, 2-(2,3-Dihydro-1-benzofuran-5-yl)-N-[5-(pyridin-4-yl)-1,3,4-thiadiazol-2-yl]-1,3-thiazole-4-carboxamide] | 31.5 nM |
| Cc1cnc(NC(=O)c2csc(-c3ccc4c(c3)CCO4)n2)s1 [Compound 58, 2-(2,3-Dihydro-1-benzofuran-5-yl)-N-(5-methyl-1,3-thiazol-2-yl)-1,3-thiazole-4-carboxamide] | 27.6 nM |
| O=C(c1ccccc1)c1ccc2[nH]c(NC(=O)c3csc(-c4ccc5c(c4)CCO5)n3)nc2c1 [Compound 60, N-(5-Benzoyl-1H-1,3-benzodiazol-2-yl)-2-(2,3-dihydro-1-benzofuran-5-yl)-1,3-thiazole-4-carboxamide] | 38.3 nM |
| CC(=O)c1csc(NC(=O)c2csc(-c3ccc4c(c3)CCO4)n2)n1 [Compound 76, N-(4-Acetyl-1,3-thiazol-2-yl)-2-(2,3-dihydro-1-benzofuran-5-yl)-1,3-thiazole-4-carboxamide] | 185 nM |
| O=C(Nc1nncs1)c1csc(-c2ccc3c(c2)CCO3)n1 [Compound 71, 2-(2,3-Dihydro-1-benzofuran-5-yl)-N-(1,3,4-thiadiazol-2-yl)-1,3-thiazole-4-carboxamide] | 76.6 nM |

| Molecule | IC50 |
| --- | --- |
| N#Cc1ccnc(NC(=O)c2csc(-c3ccc4c(c3)CCO4)n2)c1 [Compound 18, N-(4-Cyanopyridin-2-yl)-2-(2,3-dihydrobenzofuran-5-yl)thiazole-4-carboxamide] | 19.5 nM |
| Cn1c(NC(=O)c2csc(-c3ccc4c(c3)CCO4)n2)nc2ccccc21 [Compound 54, 2-(2,3-Dihydro-1-benzofuran-5-yl)-N-(1-methyl-1H-1,3-benzodiazol-2-yl)-1,3-thiazole-4-carboxamide] | 17.6 nM |
| O=C(Nc1nc(-c2cccc(F)c2)n[nH]1)c1csc(-c2ccc3c(c2)CCO3)n1 [Compound 68, 2-(2,3-Dihydro-1-benzofuran-5-yl)-N-[3-(3-fluorophenyl)-1H-1,2,4-triazol-5-yl]-1,3-thiazole-4-carboxamide] | 67.1 nM |
| Nc1nc(NC(=O)c2csc(-c3ccc4c(c3)CCO4)n2)ns1 [Compound 70, N-(5-Amino-1,2,4-thiadiazol-3-yl)-2-(2,3-dihydro-1-benzofuran-5-yl)-1,3-thiazole-4-carboxamide] | 73.4 nM |
| O=C(Nc1nccs1)c1csc(-c2ccc3c(c2)CCO3)n1 [Compound 65, 2-(2,3-Dihydro-1-benzofuran-5-yl)-N-(1,3-thiazol-2-yl)-1,3-thiazole-4-carboxamide] | 48.7 nM |
| Cc1nsc(NC(=O)c2csc(-c3ccc4c(c3)CCO4)n2)n1 [Compound 69, 2-(2,3-Dihydro-1-benzofuran-5-yl)-N-(3-methyl-1,2,4-thiadiazol-5-yl)-1,3-thiazole-4-carboxamide] | 72.6 nM |
| CCCSc1n[nH]c(NC(=O)c2csc(-c3ccc4c(c3)CCO4)n2)n1 [Compound 30, 2-(2,3-Dihydrobenzofuran-5-yl)-N-(3-(propylthio)-1H-1,2,4-triazol-5-yl)thiazole-4-carboxamide] | 7.97 nM |
| O=C(Nc1nc2ccccc2s1)c1csc(-c2ccc3c(c2)CCO3)n1 [Compound 75, N-(1,3-Benzothiazol-2-yl)-2-(2,3-dihydro-1-benzofuran-5-yl)-1,3-thiazole-4-carboxamide] | 135 nM |
| CCOC(=O)c1c[nH]nc1NC(=O)c1csc(-c2ccc3c(c2)CCO3)n1 [Compound 55, Ethyl 3-[2-(2,3-dihydro-1-benzofuran-5-yl)-1,3-thiazole-4-amido]-1H-pyrazole-4-carboxylate] | 20.6 nM |
| O=C(Nc1ncccc1O)c1csc(-c2ccc3c(c2)CCO3)n1 [Compound 16, 2-(2,3-Dihydrobenzofuran-5-yl)-N-(3-hydroxypyridin-2-yl)thiazole-4-carboxamide] | 177 nM |
| CSc1nc(NC(=O)c2csc(-c3ccc4c(c3)CCO4)n2)ns1 [Compound 77, 2-(2,3-Dihydro-1-benzofuran-5-yl)-N-[5-(methylsulfanyl)-1,2,4-thiadiazol-3-yl]-1,3-thiazole-4-carboxamide] | 420 nM |
| O=C(Nc1ncns1)c1csc(-c2ccc3c(c2)CCO3)n1 [Compound 73, 2-(2,3-Dihydro-1-benzofuran-5-yl)-N-(1,2,4-thiadiazol-5-yl)-1,3-thiazole-4-carboxamide] | 114 nM |
| O=C(Nc1nc(-c2ccncc2)n[nH]1)c1csc(-c2ccc3c(c2)CCO3)n1 [Compound 42, 2-(2,3-Dihydrobenzofuran-5-yl)-N-(3-(pyridin-4-yl)-1H-1,2,4-triazol-5-yl)thiazole-4-carboxamide] | 2.06 nM |
| CC(C)CSc1n[nH]c(NC(=O)c2csc(-c3ccc4c(c3)CCO4)n2)n1 [Compound 34, 2-(2,3-Dihydrobenzofuran-5-yl)-N-(3-(isobutylthio)-1H-1,2,4-triazol-5-yl)thiazole-4-carboxamide] | 38.1 nM |
| N#CCSc1n[nH]c(NC(=O)c2csc(-c3ccc4c(c3)CCO4)n2)n1 [Compound 38, N-(3-((Cyanomethyl)thio)-1H-1,2,4-triazol-5-yl)-2-(2,3-dihydrobenzofuran-5-yl)thiazole-4-carboxamide] | 3.97 nM |
| O=C(Nc1nc2ccc(CN3CCOCC3)cc2s1)c1csc(-c2ccc3c(c2)CCO3)n1 [Compound 40, 2-(2,3-Dihydrobenzofuran-5-yl)-N-(6-(morpholinomethyl)benzo[d]thiazol-2-yl)thiazole-4-carboxamide] | 15.7 nM |
| O=C(Nc1nc2ccccc2[nH]1)c1csc(-c2ccc3c(c2)CCO3)n1 [Compound 50, N-(1H-1,3-Benzodiazol-2-yl)-2-(2,3-dihydro-1-benzofuran-5-yl)-1,3-thiazole-4-carboxamide] | 6.73 nM |
